The text below walks through data of BindingDB's records for doi:10.1016/S0960-894X(00)80678-2 (1993).

As a reminder, the Ki is the dissociation constant of the complex between target and ligand, obtained from inhibition or displacement. Read a low Ki as higher affinity.

The structures appear in SMILES notation. Non-standard residues stand in square brackets, D forms with d. Residues, ends and D or L forms follow the SMILES beside them. *: point of attachment. 1Nal = N[C@@H](Cc1cccc2ccccc12)C(=O)O; Boc = CC(C)(C)OC(=O)*

Test [1] deals with Gastrin/cholecystokinin type B receptor (Cavia porcellus). The test is described as follows: Tested for the inhibition of [3H]pCCK-8 binding to Cholecystokinin type B receptor in guinea pig brain.
Test [2] has the same target. Described as above. This is another data set of the same source.

`CCCC[C@@H](NC(=O)CC(=O)N[C@@H](Cc1c[nH]c2ccccc12)C(=O)N(C)[C@@H](CCCC)C(=O)N[C@@H](CC(=O)O)C(=O)N[C@@H](Cc1ccccc1)C(N)=O)NC(=O)[C@H](Cc1ccc(CS(=O)(=O)O)cc1)NC(=O)OC(C)(C)C` [Boc-Phe(CH2-SO3Na)-gNle-mCIy-Trp-(N-Me)Nle-Asp-Phe-NH2] gave an inhibition constant (Ki) in test [1] of 0.46 nM.
`CC(C)(C)OC(=O)N[C@@H](Cc1c[nH]c2ccccc12)C(=O)N[C@@H](Cc1ccccc1)C(=O)N[C@@H](CC(=O)O)C(=O)N[C@@H](Cc1cccc2ccccc12)C(N)=O` [Boc-Trp-Phe-Asp-1Nal-NH2] (Boc-WFD[1Nal]-NH2): in test [1], the affinity, expressed as Ki, was 71 nM.
For `CCCC[C@@H](NC(=O)CC(=O)N[C@@H](Cc1c[nH]c2ccccc12)C(=O)N(C)[C@@H](CCCC)C(=O)N[C@@H](CC(=O)O)C(=O)N[C@@H](Cc1ccccc1)C(N)=O)NC(=O)[C@H](Cc1ccc(OS(=O)(=O)O)cc1)NC(=O)OC(C)(C)C` [Boc-Tyr(SO3Na)-gNle-mGIy-Trp-(N-Me)Nle-Asp-Phe-NH2], in test [2], the inhibition constant (Ki) worked out at 0.15 nM.
